Biological target: T1, recombinant Arabidopsis ACS5 (Arabidopsis thaliana, UniProt Q37001)
T1 construct: The full-length cDNA of Arabidopsis ACS5 (At5g65800) was cloned to pETDuet (Novagen); 6His (N); made in house; host or cells: E. coli BL21-CodonPlus (Stratagene)
T1 sequence (Q37001 1-470): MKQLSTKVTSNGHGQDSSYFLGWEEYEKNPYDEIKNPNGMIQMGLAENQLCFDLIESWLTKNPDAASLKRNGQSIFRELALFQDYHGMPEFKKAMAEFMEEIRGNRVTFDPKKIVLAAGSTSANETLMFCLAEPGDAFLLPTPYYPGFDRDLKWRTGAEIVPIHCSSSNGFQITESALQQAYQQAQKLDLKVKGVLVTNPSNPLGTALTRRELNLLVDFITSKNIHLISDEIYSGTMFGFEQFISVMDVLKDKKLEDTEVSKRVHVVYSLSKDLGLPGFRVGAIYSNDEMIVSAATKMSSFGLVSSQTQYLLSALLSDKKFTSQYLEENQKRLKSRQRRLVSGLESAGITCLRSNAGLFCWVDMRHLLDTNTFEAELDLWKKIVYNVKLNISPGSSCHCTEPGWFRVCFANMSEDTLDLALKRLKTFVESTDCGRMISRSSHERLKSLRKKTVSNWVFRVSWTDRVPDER
Test: In vitro ACS activity assay
Assay type: biochemical
Details: purified recombinant ACS5, 30 min at 25° C.; read-out: estimated half maximal inhibitory concentration (IC50), ACS5 enzyme activity
Description: The full-length cDNA of Arabidopsis ACS5 (At5g65800) was cloned to pETDuet (Novagen) to generate pETDuet-6His-ACS5 for expression in E. coli (BL21-CodonPlus, Stratagene) and subsequent purification of the recombinant ACS5 protein. Protein expression was induced at OD600 0.6 by adding 0.4 mM IPTG, and cells were incubated at 16° C. for 18 h. Cells were harvested by centrifugation at 6000×g for 10 min at 4° C. The cell pellet was washed and suspended in 50 mL phosphate buffer (300 mM NaCl, 20 mM phosphate buffer, pH 7.4) containing 20 mM imidazole. Cell lysis was achieved by a continuous high-pressure cell disrupter (TS 2.2 KW, Constant System) with 30 KPsi at 4° C. After washing the cell disrupter twice with 50 ml phosphate buffer containing 20 mM imidazole, the final 150 ml suspension was centrifuged at 10000×g for 30 min at 4° C. The supernatant was applied to a 5-mL HisTrap FF column in an AKTAprime system (GE Healthcare) and was subsequently washed stepwise with 100 mL buffer A (1 mM EDTA, 5 mM DTT, 250 mM HEPES buffer, pH 8.0) containing 20 mM imidazole, then 100 mL buffer A containing 100 mM imidazole. The bound protein was eluted by a 0.1-1.0 M gradient of imidazole in 25 mL buffer A and stored at −80° C. until further analysis.
ACS activity assay was performed as described (Lizada, et al. (1979) Anal Biochem 100, 140-145; Yamagami, et al. (2003) J Biol Chem 278, 49102-49112), with minor modifications. […] Ethylene level was measured by use of a gas chromatograph (HP 6890, Hewlett-Packard) equipped with a capillary column (19095P-U04, Agilent Technologies) and an autosampler (HP 7694, Agilent Technologies). […]
To further test this possibility, recombinant Arabidopsis ACS5 protein from bacterial cells was purified for an in vitro enzyme activity assay. […] The quantity of ACC converted to ethylene by recombinant ACS5 is the readout of ACS activity. […]

Structure (SMILES)	IC50 [nM]
COc1ccc(C2CC(=O)c3cnc(Nc4ccccc4)nc3C2)cc1 (stereo not drawn) [Compound 7303]	500
Cc1ccc(C2CC(=O)c3cnc(NC4CCCC4)nc3C2)cc1 (stereo not drawn) [Compound 9370]	1400
CC1(C)CC(=O)c2cnc(NC3CCCC3)nc2C1 [Compound 9393]	3200
